In patent publication US20040018528A1, “Novel biomarkers of tyrosine kinase inhibitor exposure and activity in mammals” (Sugen, Inc., priority 2002, published 2004):
“And” between values parts separate entries of the source, which are not always exact repeats. Equal values may be shown once.

Key:
Type in all cases: in vivo, human
[1] = test system: PAI-1; assay: PAI-1 plasma levels in Compound B trial patients; settings: after 56 days of treatment
[2] = test system: PBMC and whole blood RNA; assay: SYBR Green quantitative RT-PCR of PBMC / whole blood RNA, Compound B Trials A and B; settings: end of one treatment cycle relative to baseline, two Phase III trials
Description: Primers were designed with Primer Express 1.5 software (Applied Biosystems). In all cases, primers were designed to bind within the sequence that was used in Affymetrix probe set designs (target sequence information available on Affymterix NetAffx website). Total RNA samples (1 μg) were reverse transcribed to yield first-strand cDNA using the Applied Biosystems Reverse Transcription Reagents protocol (Applied Biosystems, Foster City, Calif.). The reverse transcription reactions were then diluted 1:5 in distilled H2O. […] For individual reactions, 10 μl of each sample were combined with 15 μl of SYBR Green PCR Master Mix (Applied Biosystems) containing the appropriate primer pair at 350 nM. Data was extracted and amplification plots generated with ABI SDS software. […]
The relative expression data for a select subset of potential biomarkers were tested for differences between the Compound B (treatment) and the standard of care (control) arms. […] Results from three different cross-validations were evaluated to select the best set of predictable biomarkers: (1) jackknife method (dropping one case at a time); (2) randomly splitting the pooled data into two halves, prediction (for building model) and validation (for testing model); and (3) using the first trial as prediction and the later trial as validation sets, respectively. […]

[3] = test system: PBMC; assay: Affymetrix microarray expression profiling of PBMC, Compound B Trial A; settings: PBMC day 56 vs day 1
Description: Patient samples were derived from 2 randomized, open-label, multicenter Phase III clinical trials comparing standard of care chemotherapy alone or combined with Compound B in patients with metastatic colorectal cancer. In both trials Compound B was delivered twice weekly at a dose of 145 mg/m^2 via I.V. infusion. In the first trial (designated Trial A), the standard of care chemotherapy consisted of weekly administration of 5-FU and leucovorin (Rosewell Park regimen); in the second trial (designated Trial B), the standard of care chemotherapy consisted of weekly or bi-weekly administration of 5-FU, leucovorin and Irinotecan (CPT-11). A total of 23 patient sample pairs were included in Affymetrix microarray expression profiling analysis, 2 females and 9 males in the Compound B treatment arm, and 2 females and 10 males in the control arm. The median patient age was 66 and 65 years for the Compound B treatment arm and control arm, respectively. For RT-verification experiments, samples from 12 females and 24 males from the Compound B treatment arm, and 14 females and 17 males from the control arm were used. The median age for these patients was 62 and 60 years, respectively. Clinical response criteria were defined according to RECIST guidelines.
All blood samples were collected into Vacutainer tubes containing sodium heparin. Ten 10 ml of blood was withdrawn from patients prior to receiving any treatment on day 1 and also prior to dosing at end of cycle 1 (day 56 in Trial A; day 42 in Trial B). For peripheral blood mononuclear cell (PBMC) preparations, blood samples were shipped overnight at ambient temperature to a central processing facility (Quest Diagnostics, Inc., Collegeville, Pa., USA) for PBMC isolation via Ficoll gradient method. Purified PBMCs were shipped in RNA lysis buffer (Clontech, Palo Alto, Calif., USA) to SUGEN where isolation of total RNA was performed. For Trial B, whole peripheral blood samples were directly frozen at the clinical sites and shipped on dry ice to SUGEN for RNA isolation.
Total RNA was purified from PBMC samples using Clontech Nucleospin RNA II kit reagents (Clontech, Palo Alto, Calif.) and from whole blood samples using MRC TRI Reagent BD (Molecular Research Center, Cincinnati, Ohio, USA), an adaptation of the Chomczynski single step method, according to the manufacturer's instructions. All sample preparations included a treatment with RNAse-free DNAse. RNA yields were measured by UV absorbance and RNA quality was assessed by agarose gel electrophoresis with ethidium bromide staining for visualization of ribosomal RNA band integrity.
In these experiments, equal amounts of starting material were used for pre- and post-treatment samples from each donor (typically 2 μg). Briefly, the protocol was as follows: double-stranded cDNA was synthesized from total RNA (2 μg), with Invitrogen Life Technologies SuperScript Choice system reagents (Invitrogen, Carlsbad, Calif.). The T7-(dT)24 oligomer was used for priming first-strand cDNA synthesis. Double-stranded cDNA product was purified via phenol-chloroform extraction, then used as template in first round of in vitro transcription (IVT) of cRNA. […] The cRNA product was then purified with Qiagen spin column clean-up protocol and used as template in second round of cDNA synthesis. This second round of synthesis was similar to the first round except that random hexamers were used in priming of first-strand synthesis, with T7-(dT)24 oligomer priming the second-strand. Purification of the cDNA was as in the first round. The second round of IVT of cRNA was as in the first round but with biotinylated ribonucleotides rather than non-biotinylated ribonucleotides. Purified cRNA was quantitated, chemically fragmented according to Affymetrix protocol, and then hybridized overnight on Human Genome U95A Arrays (which contain probe sets for the detection of approximately 12,600 transcripts). […]

[4] = test system: RNA transcripts in patient whole blood; assay: Affymetrix DNA array and TaqMan qRT-PCR of whole blood RNA of patients given Compound A; settings: Affymetrix GeneChip
Description: TRI Reagent® BD—RNA, DNA, protein isolation reagent was used according to the manufacturer's protocol, Molecular Research Center, Inc. (Cincinnati, Ohio) <www.mrcgene.com>.
Images were scanned with a Hewlett-Packard GeneArray scanner.
To determine the fold change, the AD of the post-treatment sample was divided by the AD of the pre-dose samples.
All probes contained a reporter dye (FAM) and a dye quencher (MGB). QRT-PCR was performed using 20 ng of total RNA with TaqMan® One-Step RT-PCR Master Mix Reagents Kit (Applied Biosystems) following the manufacturer's protocol. […] VEGF (Genbank accession number AF022375) transcripts were amplified using forward primer […] (SEQ ID NO: 165), reverse primer […] (SEQ ID NO: 166), and probe […] (SEQ ID NO: 167) to generate an 82-bp amplicon product. Vinculin (Genbank accession number M33308) transcripts were amplified using forward primer […] (SEQ ID NO: 168), reverse primer […] (SEQ ID NO: 169), and probe […] (SEQ ID NO: 170) to generate a 124-bp amplicon product. PECAM-1 (Genbank accession number L34657) transcripts were amplified using forward primer […] (SEQ ID NO: 171), reverse primer […] (SEQ ID NO: 172), and probe […] (SEQ ID NO: 173) to generate a 56-bp amplicon product. MAPK Kinase 3 (Genbank accession number L36719) transcripts were amplified using forward primer […] (SEQ ID NO: 174), reverse primer […] (SEQ ID NO: 175), and probe […] (SEQ ID NO: 176) to generate a 77-bp amplicon product. Hemoglobin, epsilon 1 (Genbank accession number AI349593) transcripts were amplified using forward primer […] (SEQ ID NO: 177), reverse primer […] (SEQ ID NO: 178), and probe […] (SEQ ID NO: 179) to generate a 66-bp amplicon product. GAPDH and 18S were ordered as pre-developed assay reagents (PDARs) from Applied Biosystems and used as endogenous controls.
Where ΔΔCt=(Cttarget−Ctcontrol)post-dose−(Cttarget−Ctcontrol)pre-dose.

[5] = test system: TIMP-1; assay: ELISA of TIMP-1 in plasma of patients given Compound A; settings: cancer patients; 24 hours after first dose vs before; dosed twice over 24 hours
Description: (§1) (Minneapolis, Minn.). Human plasminogen activator inhibitor-1 (PAI-1) and human tissue factor (TF) ELISA kits were obtained from American Diagnostica, Inc. (Greenwich, Conn.). All ELISAs were performed on plasma samples according to the manufacturers' instructions.

[6] = test system: PAI-1; assay: ELISA of PAI-1 in plasma of patients given Compound A; settings: cancer patients; 24 hours after first dose vs before; dosed twice over 24 hours
Description: as §1

[7] = test system: VEGF; assay: ELISA of VEGF in plasma of patients given Compound A; settings: cancer patients; 24 hours after first dose vs before; dosed twice over 24 hours
Description: as §1

[8] = test system: IP-10; assay: IP-10 plasma ELISA, Compound 1 Phase I trials; settings: individual patients; >500 = above highest standard
Description: (§2) In Trials A and B, patients received Compound 1.
(§3) Data analysis was performed for each marker.

[9] = test system: MIG; assay: MIG plasma ELISA, Compound 1 Phase I trials; settings: individual patients
Description: as §2, §3

[10] = test system: MIG; assay: MIG plasma ELISA, Compound 1 Phase I trials; settings: Trial C patients, FIG. 17
[11] = test system: VEGF/PLGF heterodimers; assay: Hybrid ELISA for VEGF/PLGF heterodimers in patient plasma; settings: Trial C
Text: Heterodimers of VEGF and PLGF have been reported in the scientific literature. To measure heterodimers, a hybrid ELISA assay was used, combining reagents from both the R&D Systems VEGF and PLGF ELISA kits (where VEGF antibodies are used in capture step and PLGF antibodies are used in detection step).

[12] = test system: I-TAC; assay: I-TAC plasma ELISA, Compound 1 Phase I trials; settings: individual patients
Description: as §2, §3

[13] = patients with Increase call, Trial A, with 5-FU/leucovorin
[14] = advanced solid malignancies, 24 hours after first dose vs before

With Cc1cc(C)c(/C=C2\C(=O)Nc3ccccc32)[nH]1 [Compound B, 3-(3,5-dimethyl-1H-pyrrol-2-ylmethylene)-1,3-dihdyro-indol-2-one] the “median PAI-1 plasma level, day 56” value ([1]; patients with MR (minor response) at end of cycle 1) was 23.93 ng/mL, the “median PAI-1 plasma level, day 56” value ([1]; patients with PD (progressive disease) at end of cycle 1) was 34.8 ng/mL and the “expression of CD24, lactoferrin, LCN2 and MMP-9 transcripts” value [2] was “significantly induced”. The “average fold change of lactoferrin transcript” value ([3]; Compound B (SU5416) arm, highest of the 13 transcripts) was 33, the “average fold change of hypothetical protein FLJ13052 transcript” value ([3]; Compound B (SU5416) arm, lowest of the 13 transcripts) was 2.6 and the “Increased in SU5416 arm: Antileukoprotease transcript” value [3, 13] was 9 of 11. The “Increased in SU5416 arm: BPI transcript” value [3, 13] was 9 of 11, the “Increased in SU5416 arm: CD24 antigen transcript” value [3, 13] was 9 of 11 and the “Increased in SU5416 arm: CEA CAM 8 transcript” value [3, 13] was 9 of 11. The “Increased in SU5416 arm: Defensin α 3 transcript” value [3, 13] was 10 of 11, the “Increased in SU5416 arm: Defensin α 4 transcript” value [3, 13] was 10 of 11 and the “Increased in SU5416 arm: Hypothetic. Protein FLJ13052 transcript” value [3, 13] was 7 of 11. The “Increased in SU5416 arm: Lactoferrin transcript” value [3, 13] was 11 of 11, the “Increased in SU5416 arm: Lipocalin 2 transcript” value [3, 13] was 10 of 11 and the “Increased in SU5416 arm: Liver arginase transcript” value [3, 13] was 9 of 11. For the same compound, the “Increased in SU5416 arm: MMP-9 transcript” value [3, 13] was 8 of 11, the “Increased in SU5416 arm: S100 P transcript” value [3, 13] was 9 of 11 and the “Increased in SU5416 arm: Thrombospondin 1 transcript” value [3, 13] was 9 of 11. The “number of the 13 genes showing induction in each case” value ([3]; all cases of the Compound B arm) was “at least 6”.
Cc1[nH]c(/C=C2\C(=O)Nc3ccccc32)c(C)c1CCC(=O)O [Compound A, 3-[2,4-dimethyl-5-(2-oxo-1,2-dihydro-indol-3-ylidenemethyl)-1H-pyrrol-3-yl]-propionic acid] was tested, and the “level of VEGF RNA in whole blood” value [4, 14] was “increase”, the “level of vinculin RNA in whole blood” value [4, 14] was “increase” and the “levels of 26 RNA transcripts in patient blood” value ([4]; day 28 vs day 0, dosed about 2 times per day) was “increased and/or decreased”. The “level of TIMP-1 in plasma” value [5] was “increased”, the “level of PAI-1 in plasma” value [6] was “increased” and the “level of VEGF in plasma” value [7] was “increased”.
With CCN(CC)CCNC(=O)c1c(C)[nH]c(C=C2C(=O)Nc3ccc(F)cc32)c1C.O=C(O)C[C@H](O)C(=O)O [malate salt of Compound 1, L-malate salt of 5-(5-fluoro-2-oxo-1,2-dihydroindol-3-ylidenemethyl)-2,4-dimethyl-1H-pyrrole-3-carboxylic acid(2-diethylaminoethyl)amide] the “IP-10 plasma level, end C1 dosing” value [8] was >500 (4×) and 240.31 and 384.06, the “MIG plasma level, day 15” value ([9]; cycle 1) was 339.16 and the “MIG plasma level, end C1 dosing” value ([9]; in pg/mL (unit assumed)) was 995.47 and 81.439 and 145.64 and 698.23 and 1066.2 and 344.93 and 907.09 and 314.2. For the same compound, the “chemokine MIG plasma level during treatment” value [10] was “induced”, the “patients tested with increase in plasma levels of VEGF/PLGF heterodimer” value [11] was 3 of 3 and the “I-TAC plasma level, day 15” value ([12]; cycle 1) was 2020.2. The “I-TAC plasma level, end C1 dosing” value ([12]; in pg/mL (unit assumed)) was 771.04 and 701.46 and 315.69.
